Assay results taken from patent US7312225B2, “Macrocyclic pyrimidines, their production and use as pharmaceutical agents” (Bayer Schering Pharma AG, priority 2002, dated 2007).
Structures can show the parent of a compound that is named as a salt. Where two headings read alike, the source gives them in different places.

Key:
DU145 = test: Proliferation assay DU145; assay type: cell-based; conditions: Homo sapiens, DU-145, 96 h; Table II; 4 days incubation, crystal violet
Description: (§1) Cultivated human tumor cells (MCF7, […] human breast cancer cells, relative to ATCC HTB22; NCI-H460, human non-small-cell lung cancer cells, ATCC HTB-177, HCT 116, human colon cancer cells, ATCC CCL-247; DU 145, hormone-independent human prostate cancer cells, ATCC HTB-81; MaTu-MDR, hormone-independent, multiple pharmaceutical agent-resistant human breast cancer cells, EPO-GmbH, Berlin) were flattened out at a density of about 5000 cells/measuring point, depending on growth rates of the respective cells in a 96-well multititer plate in 200 μl of the corresponding growth medium. After 24 hours, the cells of one plate (zero-point plate) were colored with crystal violet (see below), while the medium of the other plates was replaced by fresh culture medium (200 μl), to which the test substances were added at various concentrations (0 μmol, as well as in the range of 0.01-30 μmol; the final concentration of the solvent dimethyl sulfoxide was 0.5%). The cells were incubated for 4 days in the presence of test substances. The cell proliferation was determined by coloring the cells with crystal violet: the cells were fixed by adding 20 μl/measuring point of an 11% glutaric aldehyde solution for 15 minutes at room temperature. After three washing cycles of the fixed cells with water, the plates were dried at room temperature. The cells were colored by adding 100 μl/measuring point of a 0.1% crystal violet solution (pH was set at 3 by adding acetic acid). After three washing cycles of the colored cells with water, the plates were dried at room temperature. The dye was dissolved by adding 100 μl/measuring point of a 10% acetic acid solution. The extinction was determined by photometry at a wavelength of 595 nm. The change of cell growth, in percent, was calculated by standardization of the measured values to the extinction values of the zero-point plate (=0%) and the extinction of the untreated (0 μm) cells (=100%).

H460 = test: Proliferation assay H460; assay type: cell-based; conditions: Homo sapiens, NCI-H460, 96 h; Table II; 4 days incubation, crystal violet
Description: as §1

CDK2/CycE = target: T1, CDK2/CycE (Homo sapiens, UniProt P24941); test: CDK2/CycE kinase assay; assay type: biochemical
T1 construct: GST; purchased ProQinase GmbH, Freiburg; host or cells: baculovirus-infected insect cells (Sf9)
Experimental: Recombinant CDK2- and CycE-GST-fusion proteins, purified from baculovirus-infected insect cells (Sf9), were purchased from ProQinase GmbH, Freiburg. Histone IIIS, which was used as a kinase substrate, was purchased from the Sigma Company.
The reaction was stopped by adding EDTA solution (250 mmol, pH 8.0, 14 μl/measuring point).
From each reaction batch, 10 μl was applied to P30 filter strips (Wallac Company), and non-incorporated ^33P-ATP was removed by subjecting the filter strips to three washing cycles for 10 minutes each in 0.5% phosphoric acid. After the filter strips were dried for one hour at 70° C., the filter strips were covered with scintillator strips (MeltiLex™ A, Wallac Company) and baked for one hour at 90° C. The amount of incorporated ^33P (substrate phosphorylation) was determined by scintillation measurement in a gamma-radiation measuring device (Wallac).

CDK1/CycB = target: T2, CDK1/CycB (Homo sapiens, UniProt P06493); test: CDK1/CycB kinase assay; assay type: biochemical; conditions: Table I
T2 construct: GST; purchased ProQinase GmbH, Freiburg; host or cells: baculovirus-infected insect cells (Sf9)
T2 sequence (P06493 whole entry): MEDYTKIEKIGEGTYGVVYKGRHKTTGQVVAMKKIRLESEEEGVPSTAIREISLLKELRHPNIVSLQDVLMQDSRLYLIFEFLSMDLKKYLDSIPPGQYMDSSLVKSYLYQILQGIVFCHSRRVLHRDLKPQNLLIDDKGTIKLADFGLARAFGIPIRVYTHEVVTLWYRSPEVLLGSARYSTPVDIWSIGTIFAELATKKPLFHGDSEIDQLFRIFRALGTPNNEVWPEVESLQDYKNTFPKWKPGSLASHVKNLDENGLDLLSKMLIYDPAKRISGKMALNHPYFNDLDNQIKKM
T2 sequence (P14635 whole entry partner): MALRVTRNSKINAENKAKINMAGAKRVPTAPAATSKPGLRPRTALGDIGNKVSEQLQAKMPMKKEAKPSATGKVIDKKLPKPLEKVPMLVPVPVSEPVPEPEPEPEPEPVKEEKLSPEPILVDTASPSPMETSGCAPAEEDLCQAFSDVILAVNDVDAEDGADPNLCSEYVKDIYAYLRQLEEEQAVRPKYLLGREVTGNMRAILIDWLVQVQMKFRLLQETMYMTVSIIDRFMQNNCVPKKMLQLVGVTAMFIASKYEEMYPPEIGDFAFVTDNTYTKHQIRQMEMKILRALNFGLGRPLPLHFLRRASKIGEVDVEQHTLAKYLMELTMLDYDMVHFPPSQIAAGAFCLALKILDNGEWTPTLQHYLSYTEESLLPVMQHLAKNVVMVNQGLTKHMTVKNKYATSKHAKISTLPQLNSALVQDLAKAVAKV
Experimental: Recombinant CDK1- and CycB-GST fusion proteins, purified from baculovirus-infected insect cells (Sf9), were purchased from ProQinase GmbH, Freiburg. Histone IIIS, which was used as a kinase substrate, is commercially available from the Sigma Company.
CDK1/CycB (200 ng/measuring point) was incubated for 15 minutes at 22° C. in the presence of various concentrations of test substances (0 μm, as well as within the range of 0.01-100 μm) in assay buffer [50 mmol of tris/HCl, pH 8.0, 10 mmol of MgCl2, 0.1 mmol of Na ortho-vanadate, 1.0 mmol of dithiothreitol, 0.5 μm of adenosine triphosphate (ATP), 10 μg/measuring point of histone IIIS, 0.2 μCi/measuring point of 33P-gamma ATP, 0.05% NP40, 12.5% dimethyl sulfoxide]. The reaction was stopped by adding EDTA solution (250 mmol, pH 8.0, 14 μl/measuring point).
From each reaction batch, 10 μl was applied to P30 filter strips (Wallac Company), and non-incorporated 33P-ATP was removed by three washing cycles of the filter strips for 10 minutes each in 0.5% phosphoric acid. After the filter strips were dried for 1 hour at 70° C., the filter strips were covered with scintillator strips (MeltiLex™ A, Wallac Company) and baked for one hour at 90° C. The amount of incorporated 33P (substrate phosphorylation) was determined by scintillation measurement in a gamma-radiation measuring device (Wallac).

MCF7 = test: Proliferation assay MCF7; assay type: cell-based; conditions: Homo sapiens, MCF7, 96 h, 4 days incubation, crystal violet
Description: as §1

[1] = target: T3, VEGF Receptor tyrosine kinase-2 (Homo sapiens, UniProt P35968); test: VEGF Rezeptor-2 kinase assay; assay type: biochemical; conditions: Table I; read-out: VEGF-R2 IC50
T3 construct: GST; made in house; host or cells: baculovirus-infected insect cells (Sf9)
T3 sequence (P35968 20-1356): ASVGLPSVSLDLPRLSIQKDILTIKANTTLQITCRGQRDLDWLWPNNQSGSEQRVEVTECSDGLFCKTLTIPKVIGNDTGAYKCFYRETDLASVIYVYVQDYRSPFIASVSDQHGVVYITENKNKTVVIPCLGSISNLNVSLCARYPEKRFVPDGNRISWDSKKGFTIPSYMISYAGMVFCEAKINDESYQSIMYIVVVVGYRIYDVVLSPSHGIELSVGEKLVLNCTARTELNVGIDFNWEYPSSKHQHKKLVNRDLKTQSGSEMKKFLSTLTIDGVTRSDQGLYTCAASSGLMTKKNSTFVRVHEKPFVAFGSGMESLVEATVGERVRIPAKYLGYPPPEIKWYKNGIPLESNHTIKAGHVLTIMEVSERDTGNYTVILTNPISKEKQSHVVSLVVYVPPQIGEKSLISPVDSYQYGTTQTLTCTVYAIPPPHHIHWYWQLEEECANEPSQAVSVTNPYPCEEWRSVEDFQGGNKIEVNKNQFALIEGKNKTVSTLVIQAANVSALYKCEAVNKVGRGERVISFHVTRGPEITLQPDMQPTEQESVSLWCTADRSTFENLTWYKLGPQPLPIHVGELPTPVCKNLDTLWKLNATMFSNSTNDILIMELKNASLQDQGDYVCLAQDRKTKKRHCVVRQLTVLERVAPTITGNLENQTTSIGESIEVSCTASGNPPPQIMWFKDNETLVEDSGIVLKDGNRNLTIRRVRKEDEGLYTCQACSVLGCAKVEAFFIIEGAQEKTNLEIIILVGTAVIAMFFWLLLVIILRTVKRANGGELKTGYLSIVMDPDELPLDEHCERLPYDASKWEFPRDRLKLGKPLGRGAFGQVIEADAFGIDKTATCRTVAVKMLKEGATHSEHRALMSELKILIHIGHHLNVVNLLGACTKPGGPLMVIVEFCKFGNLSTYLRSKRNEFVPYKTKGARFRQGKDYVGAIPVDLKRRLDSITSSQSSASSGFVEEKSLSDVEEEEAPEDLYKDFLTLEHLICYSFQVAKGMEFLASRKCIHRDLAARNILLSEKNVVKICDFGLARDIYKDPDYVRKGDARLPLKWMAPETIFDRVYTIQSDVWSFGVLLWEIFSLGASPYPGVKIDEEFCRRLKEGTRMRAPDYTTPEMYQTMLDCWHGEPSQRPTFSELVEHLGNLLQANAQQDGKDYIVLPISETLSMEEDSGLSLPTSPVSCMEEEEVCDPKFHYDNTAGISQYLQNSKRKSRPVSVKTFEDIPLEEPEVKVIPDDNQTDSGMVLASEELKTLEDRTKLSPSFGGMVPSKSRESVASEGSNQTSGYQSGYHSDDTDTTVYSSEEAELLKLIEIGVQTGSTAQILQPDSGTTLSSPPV
Experimental: VEGF Rezeptor-2 Kinase Assay
Recombinant VEGF Receptor tyrosine kinase-2 was purified as GST-fusion protein from baculovirus-infected insect cells (Sf9). Poly-(Glu4Tyr), which was used as a kinase substrate, was purchased from the Sigma Company.
VEGF Receptor tyrosine kinase (90 ng/measuring point) was incubated for 10 minutes at 22° C. in the presence of various concentrations of test substances (0 μmol, as well as within the range of 0.001-30 μM) in 30 μl of assay buffer [40 mmol of Tris/HCl […], 10 mmol of MgCl2, 1 mmol of MnCl2, 3 μmol of Na orthovanadate, 1.0 mmol of dithiothreitol, 8 μmol of adenosine trisphosphate (ATP), 27 μg/measuring point of poly-(Glu4Tyr), 0.2 μCi/measuring point of ^33P-gamma ATP, 1% dimethyl sulfoxide]. The reaction was stopped by adding EDTA solution (250 mmol, pH 7.0, 10 μl/measuring point).
From each reaction batch, 10 μl was applied to P30 filter strips (Wallac Company), and non-incorporated 33P-ATP was removed by subjecting the filter strips to three washing cycles for 10 minutes each in 0.5% phosphoric acid. After the filter strips were dried for 1 hour at 70° C., the filter strips were covered with scintillator strips (MeltiLex™ A, Wallac Company) and baked on for 1 hour at 90° C. The amount of incorporated 33P (substrate phosphorylation) was determined by scintillation measurement in a gamma-radiation measuring device (Wallac).

MaTu-ADR = test: Proliferation assay MaTu-ADR; assay type: cell-based; conditions: Homo sapiens, 96 h, read-out: Proliferation IC50 MaTu-ADR
Description: as §1

HCT116 = test: Proliferation assay HCT116; assay type: cell-based; conditions: Homo sapiens, HCT-116, 96 h; Table II; 4 days incubation, crystal violet
Description: as §1

[2] = Table I, read-out: CDK2/CycE IC50
[3] = Table II, read-out: Inhibition IC50 CDK2/CycE
[4] = Table II, read-out: Proliferation IC50 MCF7
[5] = Table II, 4 days incubation, crystal violet

Row | IC50 (DU145) [µM] | IC50 (H460) [µM] | IC50 (CDK2/CycE; [2]) [µM] | IC50 (CDK2/CycE; [3]) [µM] | IC50 (CDK1/CycB) [µM] | IC50 (MCF7; Table I, read-out: MCF7 IC50) [µM] | IC50 (MCF7; [4]) [µM] | IC50 [1] [µM] | IC50 (HCT116) [µM] | SMILES | IC50 (MaTu-ADR; [5]) [µM] | IC50 (MaTu-ADR) [µM]
1 | 0.5 | 0.5 | 0.13 | 0.13 | 0.08 | 1.3 | 1.3 | 0.14 | 0.4 | NS(=O)(=O)c1ccc2cc1OCCCCNc1nc(ncc1Br)N2 [Example 8.0, 1^5-Bromo-4-oxa-2,9-diaza-1(2,4)-pyrimidina-3(1,3)-benzenacyclononaphane-3^4-sulfonamide] | 0.4 | 
2 | 2.9 | 1.7 | 0.023 | 0.023 | 0.028 | 1 | 1 | < 0.01 | 0.9 | O=S1(=O)NCCC(CO)Nc2nc(ncc2Br)Nc2cccc1c2 (racemic) [Example 1.3, rac-1^5-Bromo-4-thia-2,5,9-triaza-1(2,4)-pyrimidina-3(1,3)-benzenacyclonaphane-8-methanol-4,4-dioxide Hydrochloride] | 2.8 | 
3 | 2.2 | 0.3 |  |  | 0.02 | 0.2 |  | 0.04 | 0.2 | O=S1(=O)NCCCNc2nc(ncc2Br)Nc2cccc1c2 [Example 1.1, 1^5-Bromo-4-thia-2,5,9-triaza-1(2,4)-pyrimidina-3(1,3)-benzenacyclononaphane-4,4-dioxide] |  | 0.12
